Values joined by “and” are separate entries in the source; they are usually repeats but may differ in a detail not shown here. Equal values may be shown once.
Test system: mouse insulinoma cells (MIN6)
Experiment: Increase in fluorescence intensity (uptake) after administration of fluorescent glucose derivative to MIN6 cells, influence of cytochalasin B (CB) or phloretin (PHT), fluorescence microplate reader
Type: cell-based
Details: CDG 100 μM, 37° C. 5 minutes; CB 10 μM; MIN6 culture day 13; average, two independent experiments
Procedure: Increase in fluorescence intensity caused by the administration of CDG, and the influence of a glucose transporter (GLUT) inhibitor CB thereon were confirmed by targeting MIN6 cells.
A 96-well clear-bottom plate having wells of 8 rows (A to H) and 12 columns (1 to 12) (μClear-PLATE, Greiner Bio-One, BLACK) was used in measurement. A culture solution containing MIN6 cells suspended at a density of 60×10^4 cells/mL was added dropwise at 10 μL/well to the central portion of the well, and then, the plate was left standing for 40 minutes in an incubator for fixation. The cells were cultured by the addition of a culture solution at 200 μL/well (6000 cells/well). For layout, the cells were seeded to wells B to H on the third column and wells A to G on the fifth column. Medium replacement was performed by replacing half the amount with a fresh one once every two days at 0 to 4 DIV (days in vitro) and every day at 5 DIV or later. […]
CDG and 2-NBDG were each independently administered to the wells on the third and fifth columns using an 8-channel pipette such that these derivatives were alternately placed on the same plate. Before the administration, the autofluorescence of each well was measured in advance using a fluorescence microplate reader (Flex Station, Molecular Devices, LLC). […] The measurement was conducted at Bottom Read, Averaging 3, and Photomultiplier sensitivity high. […]

Compound: O=c1ccc2ccc(NC3C(O)OC(CO)[C@@H](O)[C@@H]3O)cc2o1 (stereo partly drawn) [CDG, 2-deoxy-2-(2-oxo-2H-chromen-7-yl)amino-D-glucose]
- fluorescence intensity in the presence of CB relative to the absence of CB: 47.3% and 42.9%
